Test results from US11542251B2, “IRAK degraders and uses thereof” (DANA-FARBER CANCER INSTITUTE, INC., priority 2018, dated 2023).

Tests used:
IRAK1 [1] = target: T1, IRAK1 (Homo sapiens (Human), UniProt P51617); assay: Adapta kinase assay, IRAK1; assay type: biochemical; conditions: Adapta kinase assay format
From the text: (§1) The IRAK1 and IRAK 4 IC50 values for various compounds disclosed herein generated from an Adapta® kinase assay format, and a Z′-LYTE™ kinases assay format, respectively, are shown in Table 1.

IRAK4 [2] = target: T2, IRAK4 (Homo sapiens (Human), UniProt Q9NWZ3); assay: Z'-LYTE kinase assay, IRAK4; assay type: biochemical; conditions: Z'-LYTE kinase assay format
T2 sequence (Q9NWZ3 whole entry): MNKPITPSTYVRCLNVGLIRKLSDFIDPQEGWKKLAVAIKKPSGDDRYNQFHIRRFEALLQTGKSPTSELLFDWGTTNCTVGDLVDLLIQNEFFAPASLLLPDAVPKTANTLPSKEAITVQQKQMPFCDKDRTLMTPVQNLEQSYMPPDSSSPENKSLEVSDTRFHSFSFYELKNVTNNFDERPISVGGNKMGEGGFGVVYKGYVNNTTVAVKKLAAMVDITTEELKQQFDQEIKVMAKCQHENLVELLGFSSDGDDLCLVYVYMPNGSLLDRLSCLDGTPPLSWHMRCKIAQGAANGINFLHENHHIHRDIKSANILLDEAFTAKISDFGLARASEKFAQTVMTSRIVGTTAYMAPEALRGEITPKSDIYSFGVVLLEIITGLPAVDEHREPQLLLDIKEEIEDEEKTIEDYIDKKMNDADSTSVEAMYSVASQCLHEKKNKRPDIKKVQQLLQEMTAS
From the text: as §1

IRAK1 [3] = target: T1, IRAK1; assay: Immunoblotting, IRAK1 degradation in BCWM.1 cells; assay type: cell-based; conditions: overnight treatment
Method: (§2) The degradation of IRAK1 or IRAK4 proteins in BCWM.1 cells was determined by immunoblotting using BCWM.1 total cell lysates prepared following overnight treatment with IRAK1/4 degraders or inhibitors using anti-IRAK1 and anti-IRAK4 antibodies (Cell Signaling Technologies, Danvers Mass.). Anti-GAPDH antibody (Santa Cruz Biotechnology) was used for determination of protein loading.

IRAK4 [4] = target: T2, IRAK4; assay: Immunoblotting, IRAK4 degradation in BCWM.1 cells; assay type: cell-based; conditions: overnight treatment
Method: as §2

[5] = concentrations as high as 10 μM

T1 sequence (P51617 whole entry): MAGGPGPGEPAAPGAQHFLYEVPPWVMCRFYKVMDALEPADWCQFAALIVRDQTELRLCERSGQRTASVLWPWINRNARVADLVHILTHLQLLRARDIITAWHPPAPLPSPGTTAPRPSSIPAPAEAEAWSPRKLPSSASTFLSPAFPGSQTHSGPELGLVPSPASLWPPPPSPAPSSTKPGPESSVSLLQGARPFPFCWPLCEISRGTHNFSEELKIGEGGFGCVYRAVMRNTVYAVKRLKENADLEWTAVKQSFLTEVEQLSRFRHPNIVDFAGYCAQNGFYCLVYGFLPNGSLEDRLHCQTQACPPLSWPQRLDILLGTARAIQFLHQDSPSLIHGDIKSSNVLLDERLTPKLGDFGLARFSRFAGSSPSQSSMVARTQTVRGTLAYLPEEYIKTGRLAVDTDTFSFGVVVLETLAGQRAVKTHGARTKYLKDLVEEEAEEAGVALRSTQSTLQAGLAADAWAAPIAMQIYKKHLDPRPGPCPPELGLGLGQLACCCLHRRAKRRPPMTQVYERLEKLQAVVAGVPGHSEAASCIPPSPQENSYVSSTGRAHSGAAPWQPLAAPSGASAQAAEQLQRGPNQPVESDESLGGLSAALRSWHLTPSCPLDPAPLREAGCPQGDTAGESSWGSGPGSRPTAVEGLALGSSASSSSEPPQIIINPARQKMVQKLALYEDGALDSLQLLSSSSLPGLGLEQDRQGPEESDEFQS

SMILES | IC50 (IRAK1 [1]) [nM] | IC50 (IRAK4 [2]) [nM] | other results
O=C1CCC(N2C(=O)c3cccc(NCCOCCOCCC(=O)N4CCC(c5cc(NC(=O)c6cccc(-c7ccn[nH]7)n6)n(-c6ccccn6)n5)CC4)c3C2=O)C(=O)N1 (stereo not drawn) [Compound 2] | 42 | 44 | 
CN1C(=O)CCC(N2C(=O)c3cccc(NCCOCCOCCOCCOCCC(=O)N4CCC(c5cc(NC(=O)c6cccc(-c7ccn[nH]7)n6)n(-c6ccccn6)n5)CC4)c3C2=O)C1=O (stereo not drawn) [Compound C1] |  |  | degradation of IRAK1 protein (IRAK1 [3]; [5]): no degradation; degradation of IRAK4 protein (IRAK4 [4]; [5]): no degradation
O=C1CCC(N2Cc3c(NCCOCCOCCC(=O)N4CCC(c5cc(NC(=O)c6cccc(-c7ccn[nH]7)n6)n(-c6ccccn6)n5)CC4)cccc3C2=O)C(=O)N1 (stereo not drawn) [Compound 3, N-(3-(1-(3-(2-(2-((2-(2,6-dioxopiperidin-3-yl)-1-oxoisoindolin-4-yl)amino)ethoxy)ethoxy)propanoyl)piperidin-4-yl)-1-(pyridin-2-yl)-1H-pyrazol-5-yl)-6-(1H-pyrazol-5-yl)picolinamide] | 40 | 18 | 
O=C1CCC(N2C(=O)c3cccc(OCCCCCCCCC(=O)N4CCC(c5cc(NC(=O)c6cccc(-c7ccn[nH]7)n6)n(-c6ccccn6)n5)CC4)c3C2=O)C(=O)N1 (stereo not drawn) [Compound 4, N-(3-(1-(9-((2-(2,6-dioxopiperidin-3-yl)-1,3-dioxoisoindolin-4-yl)oxy)nonanoyl)piperidin-4-yl)-1-(pyridin-2-yl)-1H-pyrazol-5-yl)-6-(1H-pyrazol-5-yl)picolinamide] | 212 | 142 | 
O=C1CCC(N2C(=O)c3cccc(NCCOCCOCCOCCOCCC(=O)N4CCC(c5cc(NC(=O)c6cccc(-c7ccn[nH]7)n6)n(-c6ccccn6)n5)CC4)c3C2=O)C(=O)N1 (stereo not drawn) [Compound 1, N-(3-(1-(1-((2-(2,6-dioxopiperidin-3-yl)-1,3-dioxoisoindolin-4-yl)amino)-3,6,9,12-tetraoxapentadecan-15-oyl)piperidin-4-yl)-1-(pyridin-2-yl)-1H-pyrazol-5-yl)-6-(1H-pyrazol-5-yl)picolinamide] | 43 | 16 | degradation of IRAK1 protein (IRAK1 [3]; FIG. 4): degraded; degradation of IRAK4 protein (IRAK4 [4]; FIG. 4): degraded
C=CC(=O)Nc1cccc(C(=O)Nc2ccc(NC(=O)c3cccc(-c4ccn[nH]4)n3)cc2)c1 [TL2, reference compound] | 9 | > 10000 | 
CC(C)N1CCC(c2cc(NC(=O)c3cccc(-c4ccn[nH]4)n3)n(-c3ccccn3)n2)CC1 [TL1, reference compound] | 7 | 3 | effect on IRAK1 protein levels (IRAK1 [3]; concentration of 10 μM): no effect; effect on IRAK4 protein levels (IRAK4 [4]; concentration of 10 μM): no effect
